We go through 2 molecules from ChEMBL document CHEMBL1153649, “Peptidyl epoxides as inhibitors of -chymotrypsin: Remarkable change from irreversible to reversible competitive inhibitor as a consequence of the improvement of binding affinity” (Bioorg Med Chem Lett, 1996).

Assay [1] addresses T1, Chymotrypsinogen B (Homo sapiens, UniProt P17538). The experiment in a line: Compound was tested for inhibitory activity against alpha-chymotrypsin.
The target in assay [2] is T1, Chymotrypsinogen B. The experiment in a line: Inhibitory potency was evaluated against alpha-chymotrypsin.

A word on the Ki: it is the dissociation constant of the complex between target and ligand, obtained from inhibition or displacement. A high value points to a looser hold on the target.

T1 sequence (P17538 34-164 limits assumed, other chains not shown): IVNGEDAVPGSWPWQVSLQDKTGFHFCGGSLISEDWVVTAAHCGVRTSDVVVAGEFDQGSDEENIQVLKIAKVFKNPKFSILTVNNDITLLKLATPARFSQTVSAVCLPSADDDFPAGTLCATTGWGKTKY
T1 sequence (P17538 167-263 limits assumed, other chains not shown): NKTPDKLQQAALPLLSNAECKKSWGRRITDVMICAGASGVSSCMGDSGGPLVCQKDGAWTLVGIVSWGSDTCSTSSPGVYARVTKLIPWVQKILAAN

On to `O=C(N[C@@H](Cc1ccccc1)[C@@H]1CO1)C1CCCN1C(=O)c1ccccc1` (single isomer, unassigned), for which the affinity on Chymotrypsinogen B [1] corresponds to a Ki of 820 µM.
On Chymotrypsinogen B [2], `COC(=O)[C@@H](Cc1ccccc1)[C@@H]1CO1` (single isomer, unassigned) came in with a K inact/Ki of 27 M⁻¹ s⁻¹.
